We go through four molecules from publication PMC7659582 (Cell Reports Medicine, 2020).

The target in one data set is hERG (Homo sapiens, UniProt Q12809).
For data set [1] the following is noted: Table 1; cited from earlier work.
The nature of data set [2]: FAERS disproportionality analysis. The note with it: for EB05 TdP: torsades de pointes; for EB05 VT: ventricular tachycardia.
For data set [3] the following is noted: Table 1; as of last access May 22, 2018; cited from earlier work.
A short description of data set [4]: Incidence of cardiac dysrhythmia in Truven Health MarketScan claims data. The format is in vivo, human.
The mark [5] stands for this setting: FAERS Nov 1997 to March 31, 2015, EB05 > 2 = signal.

Chain of hERG (Q12809 whole entry): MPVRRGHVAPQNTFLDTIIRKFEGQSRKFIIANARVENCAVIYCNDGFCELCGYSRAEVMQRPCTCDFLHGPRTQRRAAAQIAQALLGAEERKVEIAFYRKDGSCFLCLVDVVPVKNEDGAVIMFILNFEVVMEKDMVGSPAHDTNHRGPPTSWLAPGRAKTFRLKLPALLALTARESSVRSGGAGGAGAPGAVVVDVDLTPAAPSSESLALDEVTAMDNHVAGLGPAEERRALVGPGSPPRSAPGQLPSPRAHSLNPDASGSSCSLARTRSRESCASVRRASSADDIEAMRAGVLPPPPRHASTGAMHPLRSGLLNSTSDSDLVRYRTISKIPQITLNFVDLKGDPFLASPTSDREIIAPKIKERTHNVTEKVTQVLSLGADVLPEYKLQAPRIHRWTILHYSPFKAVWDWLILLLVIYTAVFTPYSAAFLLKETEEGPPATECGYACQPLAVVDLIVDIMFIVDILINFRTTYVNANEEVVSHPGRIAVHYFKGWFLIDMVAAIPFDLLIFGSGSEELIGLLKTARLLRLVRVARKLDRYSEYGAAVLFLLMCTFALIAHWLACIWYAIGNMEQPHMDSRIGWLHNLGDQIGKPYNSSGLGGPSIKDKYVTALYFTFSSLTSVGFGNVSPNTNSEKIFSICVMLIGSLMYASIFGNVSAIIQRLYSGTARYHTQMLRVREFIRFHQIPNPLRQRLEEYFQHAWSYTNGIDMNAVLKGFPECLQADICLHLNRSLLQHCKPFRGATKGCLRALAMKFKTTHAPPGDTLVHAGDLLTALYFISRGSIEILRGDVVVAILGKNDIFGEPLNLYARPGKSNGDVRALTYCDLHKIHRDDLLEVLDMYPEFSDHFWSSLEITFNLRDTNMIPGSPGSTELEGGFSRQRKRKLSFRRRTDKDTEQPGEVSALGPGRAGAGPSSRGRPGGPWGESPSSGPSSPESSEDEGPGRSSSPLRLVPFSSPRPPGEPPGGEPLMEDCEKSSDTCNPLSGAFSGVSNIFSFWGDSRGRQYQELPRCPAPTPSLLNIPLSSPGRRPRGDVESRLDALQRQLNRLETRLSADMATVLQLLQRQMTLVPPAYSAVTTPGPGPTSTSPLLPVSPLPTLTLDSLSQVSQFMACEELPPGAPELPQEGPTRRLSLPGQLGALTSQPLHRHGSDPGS

Consider `CN1CCN(CCCCN2C(=O)CN(/N=C/c3ccc(-c4ccc(Cl)cc4)o3)C2=O)CC1` [AZIMILIDE], for which the “hERG IC50/Free Cmax Ratio” value at hERG stood at 11.50. Moreover, in data set [1], the “CiPA Classification” value is “high”. Also, in data set [2] (setting [5]), the “EB05 TdP” value is recorded as 94.351 and the “EB05 VT” value is 1.381.
Turning to `CC[C@H]1OC(=O)[C@H](C)[C@@H](O[C@H]2C[C@@](C)(OC)[C@@H](O)[C@H](C)O2)[C@H](C)[C@@H](O[C@@H]2O[C@H](C)C[C@H](N(C)C)[C@H]2O)[C@](C)(OC)C[C@@H](C)C(=O)[C@H](C)[C@@H](O)[C@]1(C)O` [CLARITHROMYCIN], the “hERG IC50/Free Cmax Ratio” value on hERG is 77.41. Also, in data set [1], the “CiPA Classification” value is “intermediate”. Also, the “CredibleMeds Classification” value in data set [3] is recorded as “risk of TdP”. In data set [2] (setting [5]), the “EB05 TdP” value was determined as 7.69 and the “EB05 VT” value worked out at 3.016. Moreover, in data set [2] (FAERS Nov 1997 to March 31, 2015, ventricular arrhythmia, EB05 > 2 = signal), the “EB05 VA” value came to 1.898.
Turning to `Cc1cccc(C)c1OCC(C)N` (centres unmarked) [MEXILETINE], the CD incidence in data set [4] (Table 2, cardiac dysrhythmia cases, MarketScan 2009-2014) is 1,250. Also, in data set [4] (Table 2, cardiac dysrhythmia, MarketScan 2009-2014), the “Incidence Rate per 1,000 Years” value is listed as 280.45 per 1,000 Years. In addition, the “Delta from Background Rate” value in data set [4] (in vivo) was 257.45. For the same molecule, the “hERG IC50/Free Cmax Ratio” value on hERG is reported as 130.11. Further, the “CiPA Classification” value in data set [1] is “very low”. Besides, the EB05 in data set [2] (Table 2, values correspond to EB05 TdP of Table 1) stood at 2.65.
For `CCOC(=O)C1=C(C)NC(C)=C(C(=O)OC)C1c1cccc([N+](=O)[O-])c1` (centres unmarked) [NITRENDIPINE], the “hERG IC50/Free Cmax Ratio” value at hERG is 50345. In data set [1], the “CiPA Classification” value is listed as “very low”. Also, in data set [2] (setting [5]), the “EB05 TdP” value came to 0.618 and the “EB05 VT” value was determined as 0.228.
